Consider 7 molecules from ChEMBL document CHEMBL2073954, “Transport activity of human MRP3 expressed in Sf9 cells: comparative studies with rat MRP3” (Pharm Res, 2002).

For data set [1], the target named is T1, ATP-binding cassette sub-family C member 3 (Rattus norvegicus, UniProt O88563). The data set is described as follows: TP_TRANSPORTER: inhibition of E217betaG uptake in membrane vesicles from Mrp3-expressing Sf9 cells. Type of data set: functional, cell membranes, Membrane vesicle.
For data set [2], the target named is Multidrug resistance associated protein (Homo sapiens, UniProt Q96QA9). The data set is described as follows: (§1) TP_TRANSPORTER: inhibition of E217betaG uptake in membrane vesicle from MRP3-expressing Sf9 cells. It is filed as functional, cell membranes.
For data set [3], the target named is T1, ATP-binding cassette sub-family C member 3. In words: (§2) TP_TRANSPORTER: uptake in membrane vesicles from Mrp3-expressing Sf9 cells. It is filed as functional, cell membranes, Membrane vesicle.
Data set [4] shares this target. The description is as §1. Type of data set: functional, cell membranes.
Substrate in data set [5]: C[C@]12CC[C@@H]3c4ccc(O)cc4CC[C@H]3[C@@H]1CC[C@@H]2O[C@@H]1O[C@H](C(=O)O)[C@@H](O)[C@H](O)[C@H]1O
Described as §2. It is filed as functional, cell membranes, Membrane vesicle.

Substrate in data set [6]: C[C@]12CC[C@@H]3c4ccc(O)cc4CC[C@H]3[C@@H]1CC[C@@H]2O[C@@H]1O[C@H](C(=O)O)[C@@H](O)[C@H](O)[C@H]1O
Description: TP_TRANSPORTER: uptake in membrane vesicle from MRP3-expressing Sf9 cells
The conditions noted are these: Sf9; Membrane vesicle.

By Ki is commonly meant the dissociation constant of the complex between target and ligand, obtained from inhibition or displacement. Usually Km stands for the substrate concentration at which the rate is half of its maximum.

As for `CN(Cc1cnc2nc(N)nc(N)c2n1)c1ccc(C(=O)N[C@@H](CCC(=O)O)C(=O)O)cc1` [METHOTREXATE], the inhibition constant (Ki) in data set [1] was 90 µM; in data set [2], 1200 µM.
As for `CNc1nc2c(Cc3cccnc3)c(C)c(O[C@@H]3O[C@H](C(=O)O)[C@@H](O)[C@H](O)[C@H]3O)c(C)c2s1` [E3040 GLUCURONIDE], the Activity result in data set [3] is “substrate [+]”. Also, the Ki was determined as 2.6 µM in data set [4] and 5.6 µM in data set [2].
On to `N[C@@H](CCC(=O)N[C@H](CSc1ccc([N+](=O)[O-])cc1[N+](=O)[O-])C(=O)NCC(=O)O)C(=O)O`, for which the Activity result in data set [3] is “substrate [+]”. For the same molecule, the figures for the Ki in data set [1] and in data set [2] were 83.8 µM and 337 µM, respectively.
As for `O=C(O)[C@H]1O[C@@H](OCc2cc(=O)oc3cc(O)ccc23)[C@H](O)[C@@H](O)[C@@H]1O`, the Ki in data set [1] is 77 µM; in data set [2] it was 105 µM.
For `CCCCC/C=C\C\C=C/C=C/C=C/[C@@H](SC[C@@H](NC(=O)CC[C@H](N)C(=O)O)C(=O)NCC(=O)O)[C@@H](O)CCCC(=O)O` [LEUKOTRIEN C4], the Activity result in data set [3] is “substrate [+]”.

B1: ATP-binding cassette sub-family C member 3 (Rattus norvegicus) (protein)
chain: MDRLCGSGELGSKFWDSNLTVYTNTPDLTPCFQNSLLAWVPCIYLWAALPCYLFYLRHHRLGYIVLSCLSRLKTALGVLLWCISWVDLFYSFHGLVHGSSPAPVFFITPLLVGITMLLATLLIQYERLRGVRSSGVLIIFWLLCVICAIIPFRSKILLALAEGKILDPFRFTTFYIYFALVLCAFILSCFQEKPPLFSPENLDTNPCPEASAGFFSRLSFWWFTKLAILGYRRPLEDSDLWSLSEEDCSHKVVQRLLEAWQKQQTQASGPQTAALEPKIAGEDEVLLKARPKTKKPSFLRALVRTFTSSLLMGACFKLIQDLSPSSTHSCSASSSGLFRPHGPYWWGFLLAGLMFVSSTMQTLILHQHYHCIFVMALRIRTAIIGVIYRKALTITNSVKREYTVGEMVNLMSVDAQRFMDVSPFINLLWSAPLQVILAIYFLWQILGPSALAGVAVIVLLIPLNGAVSMKMKTYQVQQMKFKDSRIKLMSEILNGIKVLKLYAWEPTFLEQVEGIRQGELQLLRKGAYLQAISTFIWVCTPFMVTLITLGVYVCVDKNNVLDAEKAFVSLSLFNILKIPLNLLPQLISGMTQTSVSLKRIQDFLNQDELDPQCVERKTISPGRAITIHNGTFSWSKDLPPTLHSINIQIPKGALVAVVGPVGCGKSSLVSALLGEMEKLEGAVSVKGSVAYVPQQAWIQNCTLQENVLFGQPMNPKRYQQALETCALLADLDVLPGGDQTEIGEKGINLSGGQRQRVSLARAVYSDANIFLLDDPLSAVDSHVAKHIFDQVIGPEGVLAGKTRVLVTHGISFLPQTDFIIVLADGQITEMGHYSELLQHDGSFANFLRNYAPDENQEANEGVLQHANEEVLLLEDTLSTHTDLTDTEPAIYEVRKQFMREMSSLSSEGEGQNRPVLKRYTSSLEKEVPATQTKETGALIKEEIAETGNVKLSVYWDYAKSVGLCTTLFICLLYAGQNAVAIGANVWLSAWTNDVEEHGQQNNTSVRLGVYATLGILQGLLVMLSAFTMVVGAIQAARLLHTALLHNQIRAPQSFFDTTPSGRILNRFSKDIYVIHEVLAPTILMLFNSFYTSISTIVVIVASTPLFCVVVLPLAVFYGFVQRFYVATSRQLKRLESVSRSPIFSHFSETVTGTSVIRAYGRVQDFKVLSDAKVDSNQKTTYPYIASNRWLGVHVEFVGNCVVLFSALFAVIGRNSLNPGLVGLSVSYALQVTLSLNWMIRTLSDLESNIIAVERVKEYSKTETEAPWVLESNRAPEGWPRSGVVEFRNYSVRYRPGLELVLKNLTLHVQGGEKVGIVGRTGAGKSSMTLCLFRILEAAEGEIFIDGLNVAHIGLHDLRSQLTIIPQDPILFSGTLRMNLDPFGRYSDEDIWRTLELSHLSAFVSSQPTGLDFQCSEGGDNLSVGQRQLVCLARALLRKSRVLVLDEATAAIDLETDDLIQGTIRTQFEDCTVLTIAHRLNTIMDYNRVLVLDKGVVAEFDSPVNLIAAGGIFYGMAKDAGLA
As to B1, in data set [5], the Km was 33.4 µM.

B2: Multidrug resistance associated protein (Homo sapiens), Q96QA9 (protein)
chain: MDALCGSGELGSKFWDSNLSVHTENPDLTPCFQNSLLAWVPCIYLWVALPCYLLYLRHHCRGYIILSHLSKLKMVLGVLLWCVSWADLFYSFHGLVHGRAPAPVFFVTPLVVGVTMLLATLLIQYERLQGVQSSGVLIIFWFLCVVCAIVPFRSKILLAKAEGEISDPFRFTTFYIHFALVLSALILACFREKPPFFSAKNVDPNPYPETSAGFLSRLFFWWFTKMAIYGYRHPLEEKDLWSLKEEDRSQMVVQQLLEAWRKQEKQTARHKASAAPGKNASGEDEVLLGARPRPRKPSFLKALLATFGSSFLISACFKLIQDLLSFINPQLLSILIRFISNPMAPSWWGFLVAGLMFLCSMMQSLILQHYYHYIFVTGVKFRTGIMGVIYRKALVITNSVKRASTVGEIVNLMSVDAQRFMDLAPFLNLLWSAPLQIILAIYFLWQNLGPSVLAGVAFMVLLIPLNGAVAVKMRAFQVKQMKLKDSRIKLMSEILNGIKVLKLYAWEPSFLKQVEGIRQGELQLLRTAAYLHTTTTFTWMCSPFLVTLITLWVYVYVDPNNVLDAEKAFVSVSLFNILRLPLNMLPQLISNLTQASVSLKRIQQFLSQEELDPQSVERKTISPGYAITIHSGTFTWAQDLPPTLHSLDIQVPKGALVAVVGPVGCGKSSLVSALLGEMEKLEGKVHMKGSVAYVPQQAWIQNCTLQENVLFGKALNPKRYQQTLEACALLADLEMLPGGDQTEIGEKGINLSGGQRQRVSLARAVYSDADIFLLDDPLSAVDSHVAKHIFDHVIGPEGVLAGKTRVLVTHGISFLPQTDFIIVLADGQVSEMGPYPALLQRNGSFANFLCNYAPDEDQGHLEDSWTALEGAEDKEALLIEDTLSNHTDLTDNDPVTYVVQKQFMRQLSALSSDGEGQGRPVPRRHLGPSEKVQVTEAKADGALTQEEKAAIGTVELSVFWDYAKAVGLCTTLAICLLYVGQSAAAIGANVWLSAWTNDAMADSRQNNTSLRLGVYAALGILQGFLVMLAAMAMAAGGIQAARVLHQALLHNKIRSPQSFFDTTPSGRILNCFSKDIYVVDEVLAPVILMLLNSFFNAISTLVVIMASTPLFTVVILPLAVLYTLVQRFYAATSRQLKRLESVSRSPIYSHFSETVTGASVIRAYNRSRDFEIISDTKVDANQRSCYPYIISNRWLSIGVEFVGNCVVLFAALFAVIGRSSLNPGLVGLSVSYSLQVTFALNWMIRMMSDLESNIVAVERVKEYSKTETEAPWVVEGSRPPEGWPPRGEVEFRNYSVRYRPGLDLVLRDLSLHVHGGEKVGIVGRTGAGKSSMTLCLFRILEAAKGEIRIDGLNVADIGDPILFSGTLRMNLDPFGSYSEEDIWWALELSHLHTFVSSQPAGLDFQCSEGGENLSVGQRQLVCLARALLRKSRILVLDEATAAIDLETDNLIQATIRTQFDTCTVLTIAHRLNTIMDYTRVLVLDKGVVAEFDSPANLIAARGIFYGMARDAGLA
For B2, in data set [6], the Km is 42.9 µM.
